Experimental data reported in ChEMBL document CHEMBL5523679, “Discovery of 1,2,3-triazole incorporated indole-piperazines as potent antitubercular agents: Design, synthesis, in vitro biological evaluation, molecular docking and ADME studies” (Bioorg Med Chem, 2024).
Converted amounts (≈) assume the structure as drawn.

What was measured:
Pseudomonas aeruginosa [1] = assay: Antibacterial activity against Pseudomonas aeruginosa assessed as inhibition zone at 25 ug/ml by diffusion method; type: functional; settings: read-out: IZ
Staphylococcus aureus [2] = assay: Antibacterial activity against Staphylococcus aureus assessed as inhibition zone at 25 ug/ml by diffusion method; type: functional; settings: read-out: IZ
Pseudomonas aeruginosa [3] = assay: Antibacterial activity against Pseudomonas aeruginosa assessed as inhibition zone at 75 ug/ml by diffusion method; type: functional; settings: read-out: IZ
Escherichia coli [4] = assay: Antibacterial activity against Escherichia coli assessed as inhibition zone at 50 ug/ml by diffusion method; type: functional; settings: read-out: IZ
Pseudomonas aeruginosa [5] = assay: Antibacterial activity against Pseudomonas aeruginosa assessed as inhibition zone at 50 ug/ml by diffusion method; type: functional; settings: read-out: IZ
[6] = Cytotoxicity against African green monkey Vero cells assessed as inhibition of cell growth at 6.25 ug/ml measured after 72 hrs by MTT assay relative to control; type: toxicity, cell-based; settings: chlorocebus sabaeus, at 6.25 µg/mL
Staphylococcus aureus [7] = assay: Antibacterial activity against Staphylococcus aureus assessed as inhibition zone at 75 ug/ml by diffusion method; type: functional; settings: read-out: IZ
Escherichia coli [8] = assay: Antibacterial activity against Escherichia coli assessed as inhibition zone at 75 ug/ml by diffusion method; type: functional; settings: read-out: IZ
Staphylococcus aureus [9] = assay: Antibacterial activity against Staphylococcus aureus assessed as inhibition zone at 50 ug/ml by diffusion method; type: functional; settings: read-out: IZ
[10] = tested on: Mycobacterium tuberculosis; assay: Antimycobacterial activity against Mycobacterium tuberculosis H37Rv assessed as bacterial growth inhibition by microplate Alamar blue assay; type: functional
[11] = Cytotoxicity against African green monkey Vero cells measured after 72 hrs by MTT assay; type: toxicity, cell-based; settings: chlorocebus sabaeus
[12] = Selectivity index, ratio of CC50 for African green monkey Vero cells to MIC for Mycobacterium tuberculosis H37Rv; type: toxicity; settings: read-out: Selectivity Index
Escherichia coli [13] = assay: Antibacterial activity against Escherichia coli assessed as inhibition zone at 25 ug/ml by diffusion method; type: functional; settings: read-out: IZ

O=C(CCc1cn(Cc2cn(Cc3ccc(F)cc3)nn2)c2ccccc12)N1CCN(C(=O)c2ccncc2F)CC1
zone of inhibition at 25 µg/mL (Pseudomonas aeruginosa [1]): 10 mm
zone of inhibition at 25 µg/mL (Staphylococcus aureus [2]): 10 mm
zone of inhibition at 75 µg/mL (Pseudomonas aeruginosa [3]): 18 mm
zone of inhibition at 50 µg/mL (Escherichia coli [4]): 15 mm
zone of inhibition at 50 µg/mL (Pseudomonas aeruginosa [5]): 15 mm
inhibition at 72 h, 6.25 ug/ml [6]: 8.5%
zone of inhibition at 75 µg/mL (Staphylococcus aureus [7]): 18 mm
zone of inhibition at 75 µg/mL (Escherichia coli [8]): 20 mm
zone of inhibition at 50 µg/mL (Staphylococcus aureus [9]): 15 mm
MIC [10]: 5.5 µM
CC50 at 72 h [11]: 882 µg/mL (≈ 1550 µM)
selectivity ratio [12]: 283

O=C(CCc1cn(Cc2cn(Cc3ccc(F)cc3)nn2)c2ccccc12)N1CCN(C(=O)c2cccnc2Cl)CC1
zone of inhibition at 25 µg/mL (Escherichia coli [13]): 13 mm
zone of inhibition at 25 µg/mL (Staphylococcus aureus [2]): 10 mm
zone of inhibition at 75 µg/mL (Pseudomonas aeruginosa [3]): 13 mm
zone of inhibition at 50 µg/mL (Escherichia coli [4]): 23 mm
zone of inhibition at 50 µg/mL (Pseudomonas aeruginosa [5]): 10 mm
inhibition at 72 h, 6.25 ug/ml [6]: 10.1%
zone of inhibition at 75 µg/mL (Staphylococcus aureus [7]): 18 mm
zone of inhibition at 75 µg/mL (Escherichia coli [8]): 25 mm
zone of inhibition at 50 µg/mL (Staphylococcus aureus [9]): 15 mm
MIC [10]: 5.3 µM
CC50 at 72 h [11]: 946 µg/mL (≈ 1610 µM)
selectivity ratio [12]: 303

COc1ccc(C(=O)N2CCN(C(=O)CCc3cn(Cc4cn(Cc5ccc(F)cc5)nn4)c4ccccc34)CC2)cc1
zone of inhibition at 25 µg/mL (Pseudomonas aeruginosa [1]): 9 mm
zone of inhibition at 25 µg/mL (Escherichia coli [13]): 15 mm
zone of inhibition at 25 µg/mL (Staphylococcus aureus [2]): 12 mm
zone of inhibition at 75 µg/mL (Pseudomonas aeruginosa [3]): 18 mm
zone of inhibition at 50 µg/mL (Escherichia coli [4]): 23 mm
zone of inhibition at 50 µg/mL (Pseudomonas aeruginosa [5]): 13 mm
inhibition at 72 h, 6.25 ug/ml [6]: 8.8%
zone of inhibition at 75 µg/mL (Staphylococcus aureus [7]): 20 mm
zone of inhibition at 75 µg/mL (Escherichia coli [8]): 25 mm
zone of inhibition at 50 µg/mL (Staphylococcus aureus [9]): 18 mm
MIC [10]: 2.7 µM
CC50 at 72 h [11]: 1470 µg/mL (≈ 2520 µM)
selectivity ratio [12]: 916

Cc1ccc(C(=O)N2CCN(C(=O)CCc3cn(Cc4cn(Cc5ccc(F)cc5)nn4)c4ccccc34)CC2)cc1
zone of inhibition at 25 µg/mL (Escherichia coli [13]): 15 mm
zone of inhibition at 25 µg/mL (Staphylococcus aureus [2]): 13 mm
zone of inhibition at 75 µg/mL (Pseudomonas aeruginosa [3]): 13 mm
zone of inhibition at 50 µg/mL (Escherichia coli [4]): 20 mm
zone of inhibition at 50 µg/mL (Pseudomonas aeruginosa [5]): 10 mm
inhibition at 72 h, 6.25 ug/ml [6]: 9.4%
zone of inhibition at 75 µg/mL (Staphylococcus aureus [7]): 20 mm
zone of inhibition at 75 µg/mL (Escherichia coli [8]): 25 mm
zone of inhibition at 50 µg/mL (Staphylococcus aureus [9]): 13 mm
MIC [10]: 5.5 µM
CC50 at 72 h [11]: 1320 µg/mL (≈ 2340 µM)
selectivity ratio [12]: 424

O=C(CCc1cn(Cc2cn(Cc3ccc(F)cc3)nn2)c2ccccc12)N1CCN(C(=O)c2ccnc(Cl)c2)CC1
zone of inhibition at 25 µg/mL (Pseudomonas aeruginosa [1]): 10 mm
zone of inhibition at 25 µg/mL (Staphylococcus aureus [2]): 13 mm
zone of inhibition at 75 µg/mL (Pseudomonas aeruginosa [3]): 15 mm
zone of inhibition at 50 µg/mL (Escherichia coli [4]): 18 mm
zone of inhibition at 50 µg/mL (Pseudomonas aeruginosa [5]): 13 mm
inhibition at 72 h, 6.25 ug/ml [6]: 11.8%
zone of inhibition at 75 µg/mL (Staphylococcus aureus [7]): 18 mm
zone of inhibition at 75 µg/mL (Escherichia coli [8]): 20 mm
zone of inhibition at 50 µg/mL (Staphylococcus aureus [9]): 13 mm
MIC [10]: 2.7 µM
CC50 at 72 h [11]: 1080 µg/mL (≈ 1840 µM)
selectivity ratio [12]: 673

O=C(CCc1cn(Cc2cn(Cc3ccc(F)cc3)nn2)c2ccccc12)N1CCN(S(=O)(=O)c2ccccc2)CC1
zone of inhibition at 25 µg/mL (Pseudomonas aeruginosa [1]): 10 mm
zone of inhibition at 25 µg/mL (Escherichia coli [13]): 13 mm
zone of inhibition at 25 µg/mL (Staphylococcus aureus [2]): 9 mm
zone of inhibition at 75 µg/mL (Pseudomonas aeruginosa [3]): 15 mm
zone of inhibition at 50 µg/mL (Escherichia coli [4]): 15 mm
zone of inhibition at 50 µg/mL (Pseudomonas aeruginosa [5]): 13 mm
inhibition at 72 h, 6.25 ug/ml [6]: 11.1%
zone of inhibition at 75 µg/mL (Staphylococcus aureus [7]): 20 mm
zone of inhibition at 75 µg/mL (Escherichia coli [8]): 20 mm
zone of inhibition at 50 µg/mL (Staphylococcus aureus [9]): 15 mm
MIC [10]: 10.6 µM
CC50 at 72 h [11]: 1540 µg/mL (≈ 2630 µM)
selectivity ratio [12]: 247

O=C(CCc1cn(Cc2cn(Cc3ccc(F)cc3)nn2)c2ccccc12)N1CCN(S(=O)(=O)c2ccc(F)cc2)CC1
zone of inhibition at 25 µg/mL (Escherichia coli [13]): 13 mm
zone of inhibition at 25 µg/mL (Staphylococcus aureus [2]): 13 mm
zone of inhibition at 75 µg/mL (Pseudomonas aeruginosa [3]): 15 mm
zone of inhibition at 50 µg/mL (Escherichia coli [4]): 20 mm
zone of inhibition at 50 µg/mL (Pseudomonas aeruginosa [5]): 10 mm
inhibition at 72 h, 6.25 ug/ml [6]: 11.9%
zone of inhibition at 75 µg/mL (Staphylococcus aureus [7]): 20 mm
zone of inhibition at 75 µg/mL (Escherichia coli [8]): 25 mm
zone of inhibition at 50 µg/mL (Staphylococcus aureus [9]): 18 mm
MIC [10]: 2.6 µM
CC50 at 72 h [11]: 1700 µg/mL (≈ 2810 µM)
selectivity ratio [12]: 1060

O=C(CCc1cn(Cc2cn(Cc3ccc(F)cc3)nn2)c2ccccc12)N1CCN(C(=O)c2ccccc2C(F)(F)F)CC1
zone of inhibition at 25 µg/mL (Pseudomonas aeruginosa [1]): 10 mm
zone of inhibition at 25 µg/mL (Escherichia coli [13]): 15 mm
zone of inhibition at 75 µg/mL (Pseudomonas aeruginosa [3]): 18 mm
zone of inhibition at 50 µg/mL (Escherichia coli [4]): 23 mm
zone of inhibition at 50 µg/mL (Pseudomonas aeruginosa [5]): 15 mm
inhibition at 72 h, 6.25 ug/ml [6]: 5.4%
zone of inhibition at 75 µg/mL (Staphylococcus aureus [7]): 20 mm
zone of inhibition at 75 µg/mL (Escherichia coli [8]): 25 mm
zone of inhibition at 50 µg/mL (Staphylococcus aureus [9]): 13 mm
MIC [10]: 5 µM
CC50 at 72 h [11]: 837 µg/mL (≈ 1350 µM)
selectivity ratio [12]: 268
